Experimental data taken from patent publication US8026207B2, “Peptides and compositions for inhibiting fungal growth” (Japan Science and Technology Agency, priority 2005, dated 2011).
Ends that are not written are not given here.

Columns and labels:
Candida = settings: cited from earlier work
human erythrocytes = experiment: Toxicity Test 1: hemolytic test using erythrocytes; assay type: cell-based; settings: peptides 0.325-100 μM, FIG. 3
Protocol: A final concentration of the peptides was adjusted in a range of 0.325-100 μM, and the test was done using human erythrocytes in accordance with Nikawa H, Fukushima H, Makihira S, Hamada T, Samaranayake L P. Fungicidal effect of three new synthetic cationic peptides against Candida albicans. Oral Dis. 2004 July; 10(4): 221-8.

C. albicans = experiment: Antifungal Test 1: survival of Candida by colony count after incubation with peptide; assay type: cell-based; settings: for concentration showing a lethal ratio of 100%: Candida strain from oral cavity of a patient, 90 min at 37° C., colony count after 48 h
Protocol: The antifungal action against Candida was examined in order to confirm the antifungal effect of the present peptide. The peptide was synthesized by a conventional amino acid synthesis method using a peptide synthesizer manufactured by Shimazu Co. of Japan. The strain of Candida was isolated and provided from oral cavity of a patient in Glasgowden Hospital. The antifungal effect of the present peptide was evaluated using the above Candida strain according to the method of Edgerton et al (1998). Twenty μl of the suspension of C. albicans (1.8×10^5 cfu/mL) was mixed with the same amount of a peptide solution (0.325 μM-25 μM of the peptide concentration) and incubated for 90 min at 37° C. The reaction was stopped by adding Yeast Nitrogen Base medium. The resulting mixture was spread onto Sabouraud dextrose agar plate and incubated for 48 h at 37° C. The number of living strains was determined by colony count and survival percentage (%) was calculated in comparison with the number of colony (100%) obtained using 1 mM phosphate buffer as a control instead of the peptide solution.
The antifungal effect (∘) of the present peptide (JH8194Y) is compared with that of JH8194 (*) , His5:Histatin 5 ([…]:♦)(SEQ ID NO: 6), LFG: Bovine lactoferrin ([…]: ▪)fSEQ ID NO: 7), LFB frag (FKCRRWQWRMKKLG:▴)(SEQ ID NO: 8), and Dhvar 4: Histatin analog developed by Holland ACTA (KRLFKKLLFSLRKY: x)(SEQ ID NO: 9). The ordinate and abscissa axes of FIG. 1 indicate percentage survived of Candida, and the concentration of peptide, respectively.

For `C[C@@H]1[C@H](O)[C@@H](C)/C=C/C=C/C=C/C=C/C=C/C=C/C=C/[C@H](O[C@@H]2O[C@H](C)[C@@H](O)[C@H](N)[C@@H]2O)C[C@@H]2O[C@](O)(C[C@@H](O)C[C@@H](O)[C@H](O)CC[C@@H](O)C[C@@H](O)CC(=O)O[C@H]1C)C[C@H](O)[C@H]2C(=O)O` [amphotericin B], the “Minimal Fungicidal Concentration” value (Candida) is listed as 5 µM and the concentration eliciting hemolysis (human erythrocytes) is listed as at least 5 µM.

With KRLFRRWQWRY the “concentration showing a lethal ratio of 100%” value (C. albicans) was 1.25 µM.

For KRLFRRWQWRMKKY, the “concentration showing a lethal ratio of 100%” value (C. albicans) was 2.5 µM and the “antifungal effect (comparison in words)” value (C. albicans; FIG. 1) was “much stronger antifungal effect than lactoferrin and lactoferrin B”.

In the case of “DSHEKRHHGYKRKFHEKHHSHRGY (Synthetic peptide Histatin 5) [basic antifungal peptide of the Histatin family existing in saliva]”, the “concentration showing a lethal ratio of 100%” value (C. albicans) is reported as over 50 µM.
